This note sets out measurements from patent publication US6583306B1, “Methods of asymmetrically synthesizing enantiomers of Casodex, its derivatives and intermediates thereof” (priority 1999, dated 2003).

Usually IC50 stands for the concentration at which inhibition is half-maximal. By EC50 is commonly meant the concentration at which the effect is half-maximal.

The test system of this test is testosterone response. Description: Biological data comparing pure enantiomers of Casodex (bicalutamide) with the racemic mixture: reduction of the testosterone response. The format is cell-based. From the text: The data for dihydrotestosterone are EC50 values. The rest of the data are IC50 values, since the assay is measuring the amount of compound it takes to reduce the testosterone response 50%.

Setting [1] is: Experiment 1, amount of compound it takes to reduce the testosterone response 50%, read-out: IC50, Experiment 1.
Where [2] appears, read: Experiment 2, amount of compound it takes to reduce the testosterone response 50%, read-out: IC50, Experiment 2.

Read-outs that look alike come from different tables or passages of the source.

In the case of `C[C@@](O)(CS(=O)(=O)c1ccc(F)cc1)C(=O)Nc1ccc(C#N)c(C(F)(F)F)c1` [(S)], the IC50 is 7.7 µM under setting [1] and 11 µM under setting [2].
For `CC(O)(CS(=O)(=O)c1ccc(F)cc1)C(=O)Nc1ccc(C#N)c(C(F)(F)F)c1` [(R), N-(4cyano-3-trifluoromethyl-phenyl)-3-(4-fluoro-phenylsulfonyl)2-hydroxy-2-methyl-propionamide] the same measures were 0.374 µM and 0.359 µM.
On to `C[C@]12CCC(=O)C[C@@H]1CC[C@@H]1[C@@H]2CC[C@]2(C)[C@@H](O)CC[C@@H]12` [DHT (Standard), dihydrotestosterone], for which the EC50 stood at 0.00018 µM (read-out: EC50, Experiment 1) and 0.00018 µM (read-out: EC50, Experiment 2).
For `CC(C)(O)C(=O)Nc1ccc([N+](=O)[O-])c(C(F)(F)F)c1` [OH Flut. (Standard)], the half-inhibitory concentration (IC50) stood at 0.019 µM under setting [1] and 0.041 µM under setting [2].
`CC(O)(CS(=O)(=O)c1ccc(F)cc1)C(=O)Nc1ccc(C#N)c(C(F)(F)F)c1` (racemic) [Racemate, N-[4-cyano-3-(trifluoromethyl)phenyl]-3-[(4-fluorophenyl)sulfonyl]-2-hydroxy-2-methyl-propanamide,(+−)]: the concentration for half-maximal inhibition (IC50) worked out at 0.9 µM (read-out: IC50, Experiment 1) and 1 µM (read-out: IC50, Experiment 2).
